Experiments:
[1] = assay type: in vivo, Sprague Dawley rats; details: 2 weeks
Procedure: (§1) The compounds of the present invention are readily adapted to clinical use as anti-obesity agents, insulin sensitizing agents, hyperinsulinemia-reversing agents, and hepatic steatosis-reversing agents. Such activity was determined by assessing the amount of test compound that reduces body weight and percentage body fat, reduces plasma insulin levels, blunts the rise and/or accelerates the reduction in plasma insulin and glucose levels in response to an oral glucose challenge, and reduces hepatic lipid content relative to a control vehicle without test compound in mammals. Sprague Dawley rats were fed either chow, a diet high in sucrose (for example AIN76A rodent diet; Research diets Inc. Cat #10001) or a diet high in fat (for example Research diets Inc. Cat #12451), for from 3-8 weeks prior to and during test compound administration.
(§2) For example, after a 3-8 week period of ad libitum feeding of either a chow, high-fat, or high-sucrose diet, animals that continued to receive the diet were treated for 1-8 weeks with test compound administered either by oral gavage in water or saline or water or saline containing 0.5% methylcelluose using a Q.D., B.I.D, or T.I.D. dosing regimen. At various times during study and at sacrifice (by CO2 asphyxiation), blood was collected either from the tail vein of an unanesthesized rat or from the vena cava of animals at sacrifice into heparin or EDTA containing tubes for centrifugal separation to prepare plasma. Plasma levels of parameters of lipid and carbohydrate metabolism known by those skilled in the art to be altered coincident with anti-obesity, insulin sensitizing, hyperinsulinemia-reversing, and hepatic steatosis-reversing actions, including but not limited to cholesterol and triglycerides, glucose, insulin, leptin, adiponectin, ketone bodies, free fatty acids, and glycerol, are measured using methods known to those skilled in the art.
(§3) The anti-obesity, insulin sensitizing, hyperinsulinemia-reversing, and hepatic steatosis-reversing potential of compounds of the present invention are exemplified through the actions of example compound I-181. […] Results of the reduction in total body weight measurements after treatment of high fat diet-fed DIO rats with compound I-181 are shown in FIG. 11. The degree of body weight reduction paralleled plasma drug levels measured at the end of the study. […] The plasma leptin levels for animals receiving the standard chow diet (lean controls) were also evaluated to determine the extent of parameter normalization produced by compound I-181. […] Results of the reduction in plasma insulin measurements after treatment of high fat diet-fed DIO rats with compound I-181 are shown in FIG. 12. […] Results of the reduction in hepatic triglyceride and cholesterol measurements after treatment of high fat diet-fed DIO rats with compound I-181 are shown in FIG. 13. […] Results of diet-induced obesity studies measuring the effect of compound I-181 on plasma cholesterol and plasma triglycerides are shown in Table 4 below. Data shown are mean values for n=14 animals per group±SEM.

fatty acid synthesis = experiment: In Vivo Fatty Acid Synthesis Study ([C14]-acetate incorporated into rat liver tissue); details: oral, FIG. 8 and FIG. 16
Procedure: Compounds of the present invention were also assayed in an In Vivo Fatty Acid Synthesis Study as described by Harwood et al. “Isozyme-nonselective N-Substituted Bipiperidylcarboxamide Acetyl-CoA Carboxylase Inhibitors Reduce Tissue Malonyl-CoA Concentrations, Inhibit Fatty Acid Synthesis, and Increase Fatty Acid Oxidation in Cultured Cells and in Experimental Animals” Journal of Biological Chemistry (2008) 278, 37099-37111. An exemplary procedure for the assay, which measures the amount of radioactive [C^14]-acetate incorporated into rat liver tissue, follows.
Animals given food ad water ad libitum were treated orally at a volume of 1.0 mL/200 g body weight (rat) with either an aqueous solution containing 0.5% methylcellulose (vehicle), or an aqueous solution containing 0.5% methylcellulose plus test compound. One to four hours after compound administration, animals received an intraperitoneal injection of 0.5 mL of [C^14]-acetate (64 uCi/mL; […]). […] The pooled organic fractions were transferred to liquid scintillation vials, dried under nitrogen, dissolved in 7 mL of Aquasol liquid scintillation fluid, and assessed for radioactivity using a Beckman 6500 liquid scintillation counter. Results were recorded as disintigrations per minute (DPM) per milligram of tissue.

[2] = High sucrose diet DIO study, plasma cholesterol and triglycerides; assay type: in vivo, Sprague Dawley rats; details: for Plasma Cholesterol / Plasma Triglycerides: high sucrose-fed DIO rats, mean ± SEM, n=14
Procedure: as §1, §2, §3

[3] = high-fat diet rats, 3, 10, 30 mg/kg once daily oral gavage

Compound: COc1ccccc1[C@H](Cn1c(=O)n(C(C)(C)C(=O)O)c(=O)c2c(C)c(-c3ncco3)sc21)OC1CCOCC1 [I-181, 2-[1-[2-(2-methoxyphenyl)-2-(oxan-4-yloxy)ethyl]-5-methyl-6-(1,3-oxazol-2-yl)-2,4-dioxo-1H,2H,3H,4H-thieno[2,3-d]pyrimidin-3-yl]-2-methylpropanoic acid]
- plasma glucose levels [1, 3]: no concomitant reduction in plasma glucose levels
- plasma leptin levels [1, 3]: reduced by all compound I-181 doses evaluated
- total body weight relative to vehicle-treated control animals ([1]; high-fat diet rats, 3, 10, 30 mg/kg once daily oral gavage, FIG. 11): dose-dependent reduction in total body weight
- plasma insulin levels ([1]; high-fat diet rats, 3, 10, 30 mg/kg once daily oral gavage, FIG. 12): reduced to near lean control levels by all three compound I-181 doses
- hepatic triglycerides ([1]; high-fat diet rats, 3, 10, 30 mg/kg once daily oral gavage, FIG. 13): reduced in a dose-dependent manner
- hepatic triglycerides at the highest dose ([1]; high-fat diet rats, highest dose evaluated (30 mg/kg)): normalized to lean control levels by the highest dose evaluated
- ED50, fatty acid synthesis in rats (fatty acid synthesis): less than 0.3 mg/Kg body weight
- plasma cholesterol and triglyceride levels ([2]; high sucrose diet rats, 3, 10, 30 mg/kg once daily oral gavage, two weeks): dose-dependent reduction in plasma cholesterol and triglyceride levels
- Plasma Cholesterol ([2]; 3 mg/kg, Day 7): 94 ± 3 mg/dL
- Plasma Triglycerides ([2]; 3 mg/kg, Day 7): 154 ± 15 mg/dL
- Plasma Cholesterol ([2]; 3 mg/kg, Day 14): 96 ± 3 mg/dL
- Plasma Triglycerides ([2]; 3 mg/kg, Day 14): 171 ± 16 mg/dL
- Plasma Cholesterol ([2]; 3 mg/kg, Prebleed): 96 ± 2 mg/dL
- Plasma Triglycerides ([2]; 3 mg/kg, Prebleed): 144 ± 12 mg/dL
- Plasma Cholesterol ([2]; 10 mg/kg, Day 7): 82 ± 3 mg/dL
- Plasma Triglycerides ([2]; 10 mg/kg, Day 7): 139 ± 10 mg/dL
- Plasma Cholesterol ([2]; 10 mg/kg, Day 14): 87 ± 3 mg/dL
- Plasma Triglycerides ([2]; 10 mg/kg, Day 14): 165 ± 15 mg/dL
- Plasma Cholesterol ([2]; 10 mg/kg, Prebleed): 96 ± 3 mg/dL
- Plasma Triglycerides ([2]; 10 mg/kg, Prebleed): 183 ± 18 mg/dL
- Plasma Cholesterol ([2]; 30 mg/kg, Day 7): 78 ± 3 mg/dL
- Plasma Triglycerides ([2]; 30 mg/kg, Day 7): 116 ± 9 mg/dL
- Plasma Cholesterol ([2]; 30 mg/kg, Day 14): 78 ± 2 mg/dL
- Plasma Triglycerides ([2]; 30 mg/kg, Day 14): 118 ± 14 mg/dL
- Plasma Cholesterol ([2]; 30 mg/kg, Prebleed): 99 ± 3 mg/dL
- Plasma Triglycerides ([2]; 30 mg/kg, Prebleed): 166 ± 13 mg/dL

Reference: patent US9453026B2, “ACC inhibitors and uses thereof” (Gilead Apollo, Inc., priority 2011, dated 2016)
